Where a chain is given by its changes, count along the chain named.
Legend:
[1] = biological target: T1, AT1 V108A mutant receptor (Rattus norvegicus, UniProt P25095, V108A); experiment: competition binding, V108A mutant; settings: for Kd ratio relative to WT (in parentheses): V108A / WT; for Kd: V108A, COS1 membranes, read-out: Binding affinity (Kd)
T1 construct: expressed in transfected cells; host or cells: COS1
T1 sequence (P25095 1-359 V108A): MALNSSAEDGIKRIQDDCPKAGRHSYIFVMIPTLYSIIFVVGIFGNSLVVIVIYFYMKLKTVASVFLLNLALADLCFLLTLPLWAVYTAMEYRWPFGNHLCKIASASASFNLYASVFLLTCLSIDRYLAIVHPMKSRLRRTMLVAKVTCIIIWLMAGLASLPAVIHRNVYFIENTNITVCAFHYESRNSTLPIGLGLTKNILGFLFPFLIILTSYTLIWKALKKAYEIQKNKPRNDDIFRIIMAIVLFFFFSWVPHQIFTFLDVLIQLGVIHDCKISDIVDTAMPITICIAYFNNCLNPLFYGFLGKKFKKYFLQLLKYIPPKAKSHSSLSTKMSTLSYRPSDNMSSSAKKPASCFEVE
Procedure: (§1) The Kd and Bmax values of receptor binding were determined by ^125I-[Sar^1, Ile^8] […] Membranes expressing the WT or mutant AT1 receptors were incubated with 100 pM ^125I-[Sar^1, Ile^8] […] The binding reaction was terminated by filtering the incubation mixture through Whatman GF/C glass filters, and the residues were extensively washed further with binding buffer. The bound ligand fraction was determined from the counts per minute (cpm) remaining on the membrane. Binding kinetics values were determined as previously described.

[2] = biological target: T2, AT1 F110A mutant receptor (Rattus norvegicus, UniProt P25095, F110A); experiment: competition binding, F110A mutant; settings: for Kd ratio relative to WT (in parentheses): F110A / WT; for Kd: F110A, COS1 membranes, read-out: Binding affinity (Kd)
T2 construct: expressed in transfected cells; host or cells: COS1
T2 sequence (P25095 1-359 F110A): T1 sequence (P25095 1-359 V108A) with A108V, F110A
Procedure: as §1

[3] = biological target: T3, AT1 F117A mutant receptor (Rattus norvegicus, UniProt P25095, F117A); experiment: competition binding, F117A mutant; settings: for Kd ratio relative to WT (in parentheses): F117A / WT; for Kd: F117A, COS1 membranes, read-out: Binding affinity (Kd)
T3 construct: expressed in transfected cells; host or cells: COS1
T3 sequence (P25095 1-359 F117A): T1 sequence (P25095 1-359 V108A) with A108V, F117A
Procedure: as §1

[4] = biological target: T4, AT1 C76A/S107C/C289A mutant receptor (Rattus norvegicus, UniProt P25095, C289A/C76A/S107C); experiment: competition binding, C76A/S107C/C289A mutant; settings: for Kd ratio relative to WT (in parentheses): C76A/S107C/C289A / WT; for Kd: C76A/S107C/C289A, COS1 membranes, read-out: Binding affinity (Kd)
T4 construct: expressed in transfected cells; host or cells: COS1
T4 sequence (P25095 1-359 C76A/S107C/C289A): T1 sequence (P25095 1-359 V108A) with C76A, S107C, A108V, C289A
Procedure: as §1

[5] = biological target: T5, AT1 C76A/Y113C/C289A mutant receptor (Rattus norvegicus, UniProt P25095, C289A/C76A/Y113C); experiment: competition binding, C76A/Y113C/C289A mutant; settings: for Kd ratio relative to WT (in parentheses): C76A/Y113C/C289A / WT; for Kd: C76A/Y113C/C289A, COS1 membranes, read-out: Binding affinity (Kd)
T5 construct: expressed in transfected cells; host or cells: COS1 cells (membranes)
T5 sequence (P25095 1-359 C76A/Y113C/C289A): T1 sequence (P25095 1-359 V108A) with C76A, A108V, Y113C, C289A
Procedure: as §1

[6] = biological target: T6, AT1 C76A/F117C/C289A mutant receptor (Rattus norvegicus, UniProt P25095, C289A/C76A/F117C); experiment: competition binding, C76A/F117C/C289A mutant; settings: for Kd ratio relative to WT (in parentheses): C76A/F117C/C289A / WT; for Kd: C76A/F117C/C289A, COS1 membranes, read-out: Binding affinity (Kd)
T6 construct: expressed in transfected cells; host or cells: COS1 cells (membranes)
T6 sequence (P25095 1-359 C76A/F117C/C289A): T1 sequence (P25095 1-359 V108A) with C76A, A108V, F117C, C289A
Procedure: as §1

Row | Kd ratio relative to WT (in parentheses) [1] [fold] | Kd [1] [nM] | Kd ratio relative to WT (in parentheses) [2] [fold] | Kd [2] [nM] | Kd ratio relative to WT (in parentheses) [3] [fold] | Kd [3] [nM] | Kd ratio relative to WT (in parentheses) [4] [fold] | Kd [4] [nM] | Kd ratio relative to WT (in parentheses) [5] [fold] | Kd [5] [nM] | Kd ratio relative to WT (in parentheses) [6] [fold] | Kd [6] [nM] | SMILES
1 | 51 | 2450 ± 1310 | 1.4 | 68 ± 19 | 1.1 | 54 ± 19 | 2.1 | 102 ± 19 | 134 | 6420 ± 2570 | 0.6 | 29 ± 9 | CCCc1nc(C(C)(C)O)c(C(N)=O)n1Cc1ccc(-c2cc(Cc3ccc(O)cc3)ccc2-c2nnn[nH]2)cc1 [R794847]
2 | 2.1 | 4.8 ± 2 | 1.1 | 2.6 ± 0.5 | 1.1 | 2.5 ± 1.4 | 2.7 | 6.2 ± 3.2 | 248 | 570 ± 197 | 1.0 | 2.4 ± 1.3 | CCCc1nc(C(C)(C)O)c(C(=O)O)n1Cc1ccc(-c2ccccc2-c2nnn[nH]2)cc1 [Olmesartan, olmesartan, reference compound]
3 | 2.0 | 1.6 ± 0.8 | 1.5 | 1.2 ± 0.3 | 1.9 | 1.5 ± 0.04 | 2.3 | 1.8 ± 0.4 | 340 | 272 ± 129 | 2.8 | 2.2 ± 0.2 | CCCc1nc(C(C)(C)O)c(C(N)=O)n1Cc1ccc(-c2ccccc2-c2nnn[nH]2)cc1 [R239470]
